The target in test [1] is T1, 20S Human Erythrocyte Proteasome (HEP) (Homo sapiens, UniProt P20618+P28074).
T1 construct: 20S Human Erythrocyte Proteasome (HEP), purchased from Immatics Biotechnologies Inc; purchased Immatics Biotechnologies Inc., Tübingen, Germany; host or cells: human erythrocytes (natural source)
Nature of the test: Chymotrypsin-like activity of 20S Human Erythrocyte Proteasome (HEP), IC50 determination. It counts as biochemical. The settings on record: assay of Example C, inhibition of HEP. In outline: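 20S proteasome at 0.2 μg/mL (about 0.6 nM catalytic sites) in 20 mM Tris with 0.04% SDS, preincubated 15 min at 37° C with inhibitor before Suc-LLVY-AMC (100 μM final). AMC fluorescence read in the linear range; triplicates, IC50 from concentration series.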

The target in test [2] is T2, proteasome in Molt-4 cells (human leukemia) (Homo sapiens, UniProt P20618+P28074).
T2 sequence (P28074 60-263): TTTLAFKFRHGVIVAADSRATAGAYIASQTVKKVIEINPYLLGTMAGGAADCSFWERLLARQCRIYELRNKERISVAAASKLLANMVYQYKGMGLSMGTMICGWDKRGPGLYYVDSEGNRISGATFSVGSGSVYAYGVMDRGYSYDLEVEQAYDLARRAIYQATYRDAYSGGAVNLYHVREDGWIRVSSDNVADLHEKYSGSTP
T2 sequence (P20618 29-241): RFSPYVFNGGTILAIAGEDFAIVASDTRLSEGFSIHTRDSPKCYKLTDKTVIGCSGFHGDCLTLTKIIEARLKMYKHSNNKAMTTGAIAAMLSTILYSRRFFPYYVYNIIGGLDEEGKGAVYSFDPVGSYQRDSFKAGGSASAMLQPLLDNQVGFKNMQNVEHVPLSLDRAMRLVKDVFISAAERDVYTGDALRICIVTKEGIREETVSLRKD
The format is cell-based. To be noted: assay of Example E, inhibition of MOLT4; read-out: MOLT4 (EC50). In short, it runs like this: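 Intact Molt-4 cells (6×10^6 cells/mL) in HEPES-buffered saline were preincubated with inhibitor 15 min at 37 °C, then given cell-permeable MeOSuc-FLF-AFC at 25 μM final.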

Consider `CC(C)C[C@H](NC(=O)[C@H](CCCNC(=N)N[N+](=O)[O-])NC(=O)CCCCCCCCCO)B(O)O` [E.2.67, Boronic acid, [(1R)-1-[[(2S)-5-[[imino(nitroamino)methyl]amino]-2-[(10-hydroxydecanoyl)amino]-1-oxopentyl]amino]-3-methylbutyl]], for which the IC50 – broadly, the concentration at which inhibition is half-maximal – in test [1] was less than 10 nM. The EC50 (usually the midpoint of the concentration-response curve) in test [2] was in the range of 2000 to 10000 nM.
For `CC(C)C[C@H](NC(=O)[C@H](CCCNC(=N)N[N+](=O)[O-])NC(=O)c1ccc(-n2cccc2)cc1)B1O[C@@H]2C[C@@H]3C[C@@H](C3(C)C)[C@]2(C)O1` [D.3.64, 4-Pyrrol-1-yl-benzamide,N-[(1S)-1-[[[(1R)-1-[(3aS,4S,6S,7aR)-hexahydro-3a,5,5-trimethyl-4,6-methano-1,3,2-benzodioxaborol-2-yl]-3-methylbutyl]amino]carbonyl]-4-[[imino(nitroamino)methyl]amino]butyl]] the same measures were less than 10 nM and less than 200 nM.
For `COC(=O)CCCCCCC(=O)N[C@@H](CCCNC(=N)N[N+](=O)[O-])C(=O)N[C@@H](CC(C)C)B1O[C@@H]2C[C@@H]3C[C@@H](C3(C)C)[C@]2(C)O1` [D.2.5], in that order: less than 10 nM and 200 to 2000 nM.
As to `CSCCC(=O)N[C@@H](CCCNC(=N)N[N+](=O)[O-])C(=O)N[C@@H](CC(C)C)B1O[C@@H]2C[C@@H]3C[C@@H](C3(C)C)[C@]2(C)O1` [D.3.138, 3-Methylsulfanylpropanamide,N-[(1S)-1-[[[(1R)-1-[(3aS,4S,6S,7aR)-hexahydro-3a,5,5-trimethyl-4,6-methano-1,3,2-benzodioxaborol-2-yl]-3-methylbutyl]amino]carbonyl]-4-[[imino(nitroamino)methyl]amino]butyl]], the 50% inhibitory concentration (IC50) in test [1] was less than 100 nM. For the same compound, the EC50 in test [2] was 200 to 2000 nM.
In test [1], `CC(C)C[C@H](NC(=O)[C@H](CCCNC(=N)N[N+](=O)[O-])NC(=O)Cn1cnnn1)B1O[C@@H]2C[C@@H]3C[C@@H](C3(C)C)[C@]2(C)O1` [D.3.136] gave an IC50 of less than 10 nM. Also, the EC50 in test [2] is more than 10000 nM.
For `CC(C)C[C@H](NC(=O)[C@H](CCCNC(=N)N[N+](=O)[O-])NC(=O)c1ccc2ccccc2n1)B(O)O` [E.2.18, Boronic acid, [(1R)-1-[[(2S)-5-[[imino(nitroamino)methyl]amino]-2-[(quinoline-2-carbonyl)amino]-1-oxopentyl]amino]-3-methylbutyl]], in that order: less than 10 nM and 2000 to 10000 nM.
On to `CCCCCCCCCCS(=O)(=O)N[C@@H](CCCNC(=N)N[N+](=O)[O-])C(=O)N[C@@H](CC(C)C)B1O[C@@H]2C[C@@H]3C[C@@H](C3(C)C)[C@]2(C)O1` [D.4.3, Decane-1-sulfonamide, N-[(1S)-1-[[[(1R)-1-[(3aS,4S,6S,7aR)-hexahydro-3a,5,5-trimethyl-4,6-methano-1,3,2-benzodioxaborol-2-yl]-3-methylbutyl]amino]carbonyl]-4-[[imino(nitroamino)methyl]amino]butyl]], for which, in test [1], the concentration for half-maximal inhibition (IC50) was less than 10 nM. In test [2], the EC50 was less than 200 nM.
`Cc1cccc(/C=C/C(=O)N[C@@H](CCCNC(=N)N[N+](=O)[O-])C(=O)N[C@@H](CC(C)C)B(O)O)c1` [E.2.33, Boronic acid, [(1R)-1-[[(2S)-5-[[imino(nitroamino)methyl]amino]-2-[[(E)-3-(3-methylphenyl)acryl]amino]-1-oxopentyl]amino]-3-methylbutyl]] registered an IC50 in test [1] of less than 10 nM. Also, the EC50 in test [2] fell in the range of 2000 to 10000 nM.
As for `COCCOCCOCC(=O)N[C@H](C(=O)N[C@@H](CC(C)C)B1O[C@@H]2C[C@@H]3C[C@@H](C3(C)C)[C@]2(C)O1)[C@@H](C)O` [D.3.175, 2-[2-(2-Methoxyethoxy)ethoxy]acetamide,N-[(1S,2R)-1-[[[(1R)-1-[(3aS,4S,6S,7aR)-hexahydro-3a,5,5-trimethyl-4,6-methano-1,3,2-benzodioxaborol-2-yl]-3-methylbutyl]amino]carbonyl]-2-hydroxypropyl]], the IC50 in test [1] was less than 100 nM. In test [2], the EC50 lay in the range of 200 to 2000 nM.
As to `COc1ccc(CC(=O)N[C@@H](CCCNC(=N)N[N+](=O)[O-])C(=O)N[C@@H](CC(C)C)B(O)O)cc1` [E.2.37, Boronic acid, [(1R)-1-[[(2S)-5-[[imino(nitroamino)methyl]amino]-2-[[2-(4-methoxyphenyl)acetyl]amino]-1-oxopentyl]amino]-3-methylbutyl]], the IC50 in test [1] is less than 10 nM. Further, the EC50 in test [2] was more than 10000 nM.
On to `CC(C)C[C@H](NC(=O)[C@@H](NC(=O)c1ccccc1)[C@@H](C)O)B1O[C@@H]2C[C@@H]3C[C@@H](C3(C)C)[C@]2(C)O1` [D.3.174, Benzamide,N-[(1S,2R)-1-[[[(1R)-1-[(3aS,4S,6S,7aR)-hexahydro-3a,5,5-trimethyl-4,6-methano-1,3,2-benzodioxaborol-2-yl]-3-methylbutyl]amino]carbonyl]-2-hydroxypropyl]], for which, in test [1], the IC50 is less than 100 nM. The EC50 in test [2] was less than 200 nM.
`CC(=O)SCCCCCC(=O)N[C@@H](CCCNC(=N)N[N+](=O)[O-])C(=O)N[C@@H](CC(C)C)B1O[C@@H]2C[C@@H]3C[C@@H](C3(C)C)[C@]2(C)O1` [D.3.161, 6-(Acetylsulfanyl)hexanamide,N-[(1S)-1-[[[(1R)-1-[(3aS,4S,6S,7aR)-hexahydro-3a,5,5-trimethyl-4,6-methano-1,3,2-benzodioxaborol-2-yl]-3-methylbutyl]amino]carbonyl]-4-[[imino(nitroamino)methyl]amino]butyl]]: the IC50 in test [1] is less than 10 nM. Moreover, the EC50 in test [2] lay within 200 to 2000 nM.
Take `CC(C)C[C@H](NC(=O)[C@H](CCCNC(=N)N[N+](=O)[O-])NC(=O)c1ccc2ccccc2c1)B(O)O` [E.1.4, Boronic acid, [(1R)-1-[[(2S)-5-[[imino(nitroamino)methyl]amino]-2-[(2-naphthoyl)amino]-1-oxopentyl]amino]-3-methylbutyl]]: the IC50 in test [1] was less than 10 nM. Besides, the EC50 in test [2] is 200 to 2000 nM.
For the compound `COC(=O)CCCCCCC(=O)N[C@@H](CCCNC(=N)N[N+](=O)[O-])C(=O)N[C@@H](CC(C)C)B(O)O` [E.1.22, Boronic acid, [(1R)-1-[[(2S)-5-[[imino(nitroamino)methyl]amino]-2-[[7-(methoxycarbonyl)heptanoyl]amino]-1-oxopentyl]amino]-3-methylbutyl]], the IC50 in test [1] was less than 10 nM. Further, the EC50 in test [2] is more than 10000 nM.
Take `CCCCCCCCCC(=O)N[C@@H](CNC(=O)Cc1ccc(OC)c(OC)c1)C(=O)N[C@@H](CC(C)C)B1O[C@@H]2C[C@@H]3C[C@@H](C3(C)C)[C@]2(C)O1` [D.12, 2-S-Decanoylamino-3-(3,4-dimethoxyphenylacetamido)propionamide, N-[(1S)-1-[[(1R)-1-[(3aS,4S,6S,7aR)-hexahydro-3a,5,5-trimethyl-4,6-methano-1,3,2-benzodioxaborol-2-yl]-3-methylbutyl]amino]carbonyl]]: in test [1], the IC50 was less than 10 nM. In addition, the EC50 in test [2] is less than 200 nM.
With `CCCCCC/C=C/C(=O)N[C@@H](CCCNC(=N)N[N+](=O)[O-])C(=O)N[C@@H](CC(C)C)B1O[C@@H]2C[C@@H]3C[C@@H](C3(C)C)[C@]2(C)O1` [D.3.96, Non-2-enoic acid amide,N-[(1S)-1-[[[(1R)-1-[(3aS,4S,6S,7aR)-hexahydro-3a,5,5-trimethyl-4,6-methano-1,3,2-benzodioxaborol-2-yl]-3-methylbutyl]amino]carbonyl]-4-[[imino(nitroamino)methyl]amino]butyl]], in test [1], the IC50 was less than 10 nM. Moreover, in test [2], the EC50 was less than 200 nM.

Values taken from patent US8546608B2, “Proteasome inhibitors and methods of using the same” (Cephalon, Inc., priority 2003, dated 2013).
